Tested on: NOD blastocysts (ICM explants)
Test: NOD ES cell derivation from blastocysts in the presence of small molecules
Format: cell-based, mouse (NOD/LtJ)
Conditions: NOD/LtJ blastocysts, mESM with the inhibitors
Description: NOD/ShiLtJ were obtained from the Jackson laboratory and bred in specific-pathogen-free animal facility. Control MEFs were made from 129SvJae mice. Non-NOD ES lines derived used in this study as controls were derived from matings between 129SvJae or B6D2F1 mice. To derive ES lines, ICM explants were derived from day 3.5 blastocysts following procedures previously described (Markoulaki et al., 2008). Where applicable, ES derivation medium was also supplemented with the indicated compounds (Table S2). Dissociation of the outgrowths by treatment with Trypsin was performed on day 5 after plating and the cells were further cultured in mESC derivation medium until colonies appeared (typically after 5-7 days). From then on, established ES lines were cultured in mESM condition supplemented with the indicated compounds. NOD […] ES lines were derived by similarly plating blastocysts in EpiSC-derivation medium (For 100 ml, we added 15 ml FBS (Hyclone), 5 ml KSR, 5 μl Lif (1×107 U ESGRO/ml; Chemicon), 100 μl Mek1 inhibitor (PD98059; Cell Signaling Technology), hFGF2 ([…]), 1 ml non-essential amino acids, 1 ml glutamine solution, and 1 ml pen/strep solution into DMEM/F12). ICM outgrowths were manually passaged after 5-7 days and were stably maintained in […] conditions. […]

O=C1Cc2c([nH]c3ccc(Br)cc23)-c2ccccc2N1 [Kenpaullone, 9-bromo-7,12-dihydroindolo[3,2-d][1]benzazepin-6(5H)-one]
# of ES lines derived: 2
ES derivation (% efficiency): (13%)

From patent US20110088107A1, “COMPOSITIONS AND METHODS FOR DERIVING OR CULTURING PLURIPOTENT CELLS” (priority 2009, published 2011)
